Test results as given in patent publication US20250051375A1, “ANTI-HIV COMPOUNDS” (Gilead Sciences, Inc., priority 2023, published 2025).
Values after ≈ are worked out from the molar mass of the structure shown. Read-outs that look alike come from different tables or passages of the source.

Assays:
[1] = Intestinal S9 Assay (human GI S9); type: in vitro ADME; details: 1.0 mg/mL S9 protein; for half-life at 2 μM: human, TRIS pH 7.4, read-out: Human GI S9 T½; for Human GI S9 [Intermediate A] / Human GI S9 [Intermediate A] %: 2 μM, TRIS pH 7.4
Procedure: (§1) Reagents. Stock solutions of test compounds in dimethyl sulfoxide (DMSO) having a final concentration of 10 mM were prepared and used in all experiments. Sekisui XenoTech (Kansas City, KS) provided pooled intestinal S9 fractions. All other chemicals were purchased from Sigma-Aldrich (St. Louis, MO) or VWR (West Chester, PA). Internal Standard/Quench (IS/Q) used to stop reactions was 100 nM labetalol in (by volume) formic acid (1%) and acetonitrile (99%).
(§2) Intestinal S9 Assay: For each test compound, an aliquot of the test compound was added to S9 stock diluted with TRIS buffer (100 mM TRIS, 1 mM ZnCl2, 1 mM MgCl2), pH 7.4, to obtain an incubation protein concentration of 1.0 mg/mL. The incubation was initiated by the addition of the substrate to the S9 reaction mixture to a final concentration of 2 μM. At 0, 10, 20, 30, 60 and 120 min, 25 μL aliquots of the reaction mixture were transferred to plates containing 225 μl of IS/Q solution. After quenching, the plates were centrifuged at 3000×g for 30 minutes. 150 μL aliquots of each supernatant were transferred to new plates and 150 μL water was added. Aliquots (10 μL) of the prepared samples were analyzed on a Thermo Q-Exactive mass spectrometer as described below.
(§3) Liquid Chromatography-Mass Spectrometry: Quantification of test compounds and control substrate was performed by analyte/internal standard peak area ratio (PAR) values measured on a Thermo Q-Exactive mass spectrometer coupled to a Dionex UltiMate 3000 HPLC with a Leap Technologies HTC PAL autosampler. The column used for analysis was a Thermo Scientific Hypersil GOLD (1.9 μm particle size, 50×2.1 mm). Mobile phase A consisted of 0.1% (v/v) formic acid in water. Mobile phase B consisted of 0.1% (v/v) formic acid in acetonitrile. Elution of analytes was achieved by a series of linear gradients varying the proportions of A and B. The mass spectrometer was calibrated on a weekly basis and mass tolerance of 5 ppm was used.
(§4) Data Analysis. Metabolic stabilities were determined by measuring the rates of disappearance of test compound and positive control substrate. Data (% of substrate remaining) were plotted on a semi-log scale and fitted using an exponential decline model:
(§5) where • Ct% of substrate remaining at time=t • C0% of substrate remaining at time=0 • t time • T½ half-life • The Half-life (T½) is determined by the following equation:
(§6) [formula] • Assuming a first-order reaction, the slope (k) is extrapolated from the aforementioned plotted data.

[2] = PBS Stability Assay; type: physicochemical; details: buffer, pH 7.4, 2 μM, phosphate buffered saline pH 7.4; read-out: PBS T½
Summary of the method: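 Half-life derives from first-order exponential decline of % compound remaining, quantified by LC-MS analyte/internal-standard peak-area ratio. Compound (2 μM final) sat in pH 7.4 phosphate-buffered saline, with aliquots quenched into acidified acetonitrile containing labetalol from 0 to 120 min.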

[3] = Intestinal S9 Assay (dog GI S9); type: in vitro ADME; details: 1.0 mg/mL S9 protein; for half-life at 2 μM: dog, TRIS pH 7.4, read-out: Dog GI S9 T½; for Dog GI S9 [Intermediate A] / Dog GI S9 [Intermediate A] %: 2 μM, TRIS pH 7.4
Procedure: as §1, §2, §3, §4, §5, §6

[4] = target: bovine intestinal alkaline phosphatase (Bos taurus (Bovine), UniProt P19111); experiment: BiALP: conversion by bovine intestinal alkaline phosphatase; type: in vitro ADME; details: 2 μM substrate, 100 ng/mL iALP, Tris pH 7.8, 37° C., 60 minutes; for [Intermediate A] or [Amprenavir]: parent formed
Chain of bovine intestinal alkaline phosphatase (P19111 20-506): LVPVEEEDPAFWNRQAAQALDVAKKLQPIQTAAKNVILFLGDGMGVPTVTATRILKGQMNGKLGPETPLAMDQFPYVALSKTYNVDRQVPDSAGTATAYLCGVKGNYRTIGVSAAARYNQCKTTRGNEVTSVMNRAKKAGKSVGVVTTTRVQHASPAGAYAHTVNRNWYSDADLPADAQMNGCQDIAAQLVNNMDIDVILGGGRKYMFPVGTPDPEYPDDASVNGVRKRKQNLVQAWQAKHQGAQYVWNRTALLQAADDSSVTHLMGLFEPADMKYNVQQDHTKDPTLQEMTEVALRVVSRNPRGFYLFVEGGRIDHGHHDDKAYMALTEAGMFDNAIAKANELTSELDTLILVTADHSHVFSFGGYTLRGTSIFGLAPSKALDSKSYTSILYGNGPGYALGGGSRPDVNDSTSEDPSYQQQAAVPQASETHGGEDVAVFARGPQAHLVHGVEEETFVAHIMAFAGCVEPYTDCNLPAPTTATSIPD
Summary of the method: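 LC-MS (positive mode) quantified analyte/internal-standard peak area ratios, referenced to 2 μM parent product. This followed a 60 min, 37° C reaction of 2 μM substrate in Tris buffer pH 7.8 (1 mM MgCl2, 1 mM ZnCl2) containing 100 ng/mL iALP or buffer alone, run in triplicate.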

[5] = system: HIV-1 IIIB strain; experiment: MT-4 HIV Wild Type Virus Infection Assay (IIIB Virus); type: cell-based; details: Human immunodeficiency virus 1, IIIB, MT4, 120 h, MT-4 cells acutely infected with HIV-1 IIIB, 5 day incubation, Cell-titer glo
Summary of the method: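 MT-4 cells at 2×10^6 cells/ml in RPMI/10% FBS were acutely infected with HIV-1 IIIB for 1 h at 37° C, diluted 25× and added to serially diluted compounds. After 5 days at 37° C, viability read by CellTiter-Glo luminescence; EC50 from dose-response curves.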

[6] = physchem; details: 23 °C, pH 6.5, fassif, thermodynamic from solid; for solubility: FaSSIF (pH 6.5) solubility, FaSSIF pH 6.5, dose 5 mg/mL, 2-hour incubation, ambient temperature
Summary of the method: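 Concentration measured by HPLC-UV after solid compound was dosed at 5 mg/mL into pH 6.5 fasted-state simulated intestinal fluid containing taurocholate and lecithin (4:1 molar) and vortexed.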

| Compound | half-life at 2 μM [1] [h] | half-life at 2 μM [2] [h] | half-life at 2 μM [3] [h] | [Compound] [4] [nM] | EC50 ([5]; read-out: EC50) [nM] | solubility [6] [µg/mL] | Human GI S9 [Intermediate A] [1] [nM] | Human GI S9 [Intermediate A] % [1] [%] | Dog GI S9 [Intermediate A] [3] [nM] | Dog GI S9 [Intermediate A] % [3] [%] | biALP Intermediate A or [Amprenavir] (% of total) [4] | [Intermediate A] or [Amprenavir] [4] [nM] | EC50 [5] [nM] | solubility at 2 h [6] [µg/mL] |
| --- | --- | --- | --- | --- | --- | --- | --- | --- | --- | --- | --- | --- | --- | --- |
| COC(=O)N[C@H](C(=O)N[C@@H](Cc1ccc(C#Cc2cnc(N3CC4CCC(C3)N4C3COC3)nc2)cc1)[C@H](CN(Cc1c(F)cc(-c2ccn(C(F)F)n2)cc1F)NC(=O)[C@@H](NC(=O)OC)C(C)(C)C(F)(F)F)OC(=O)CC(C)(C)c1c(CC(=O)O)cc(C)cc1OP(=O)(O)O)C(C)(C)C(F)(F)F [Example 4] | 7.74 | 9.43 | 1.69 | 1627.4 | 20.7 | 272 (≈ 183 µM) |  |  |  |  |  |  |  |  |
| COC(=O)N[C@H](C(=O)N[C@@H](Cc1ccc(C#Cc2cnc(N3CC4CCC(C3)N4C3COC3)nc2)cc1)[C@H](CN(Cc1c(F)cc(-c2ccn(C(F)F)n2)cc1F)NC(=O)[C@@H](NC(=O)OC)C(C)(C)C(F)(F)F)OC(=O)CC(C)(C)c1c(CC(=O)O)cccc1OP(=O)(O)O)C(C)(C)C(F)(F)F [Example 5, 2-(2-((5S,10S)-8-(4-(1-(difluoromethyl)-1H-pyrazol-3-yl)-2,6-difluorobenzyl)-14-methyl-10-((1S)-2-(4-((2-(8-(oxetan-3-yl)-3,8-diazabicyclo[3.2.1]octan-3-yl)pyrimidin-5-yl)ethynyl)phenyl)-1-((S)-4,4,4-trifluoro-2-((methoxycarbonyl)amino)-3,3-dimethylbutanamido)ethyl)-3,6,12-trioxo-5-(1,1,1-trifluoro-2-methylpropan-2-yl)-2,11-dioxa-4,7,8-triazapentadecan-14-yl)-3-(phosphonooxy)phenyl)acetic acid] | 11.6 | 7.62 | 0.74 | 1638.1 | 73.7 | < 1000 |  |  |  |  |  |  |  |  |
| COC(=O)N[C@H](C(=O)N[C@@H](Cc1ccc(C#Cc2cnc(N3CC4CCC(C3)N4C3COC3)nc2)cc1)[C@H](CN(Cc1c(F)cc(-c2ccn(C(F)F)n2)cc1F)NC(=O)[C@@H](NC(=O)OC)C(C)(C)C(F)(F)F)OC(=O)CC(C)(C)c1c(CC(=O)N[C@@H](CCC(=O)O)C(=O)O)cccc1OP(=O)(O)O)C(C)(C)C(F)(F)F [Example 6] | 2.57 | 10.9 | 0.393 | 1304.1 |  |  | 363.6 | 28.2 | 1236 | 93.8 | 19 % of total | 306.6 | 20.7 | 3710 (≈ 2320 µM) |
| COC(=O)N[C@H](C(=O)N[C@@H](Cc1ccc(C#Cc2cnc(N3CC4CCC(C3)N4C3COC3)nc2)cc1)[C@H](CN(Cc1c(F)cc(-c2ccn(C(F)F)n2)cc1F)NC(=O)[C@@H](NC(=O)OC)C(C)(C)C(F)(F)F)OC(=O)CC(C)(C)c1c(CC(=O)NCC(=O)O)cccc1OP(=O)(O)O)C(C)(C)C(F)(F)F [Example 7] | 2.27 | 8.72 | 0.457 | 1590.8 |  |  | 404.7 | 31.3 | 1224.2 | 91 | 9.4 % of total | 164.7 | 23.2 | 5490 (≈ 3590 µM) |
| COC(=O)N[C@H](C(=O)N[C@@H](Cc1ccc(C#Cc2cnc(N3CC4CCC(C3)N4C3COC3)nc2)cc1)[C@H](CN(Cc1c(F)cc(-c2ccn(C(F)F)n2)cc1F)NC(=O)[C@@H](NC(=O)OC)C(C)(C)C(F)(F)F)OC(=O)CC(C)(C)c1c(CC(=O)N2CC[C@@H]2C(=O)O)cc(C)cc1OP(=O)(O)O)C(C)(C)C(F)(F)F [Example 9] | 8.93 | 10.4 | 1.14 | 2004.9 |  |  |  |  |  |  | 1.8 % of total | 36.5 | 241 | 2300 (≈ 1470 µM) |
| COC(=O)N[C@H](C(=O)N[C@@H](Cc1ccc(C#Cc2cnc(N3CC4CCC(C3)N4C3COC3)nc2)cc1)[C@H](CN(Cc1c(F)cc(-c2ccn(C(F)F)n2)cc1F)NC(=O)[C@@H](NC(=O)OC)C(C)(C)C(F)(F)F)OC(=O)CC(C)(C)c1c(CC(=O)N2C[C@@H](C(=O)O)C[C@H]2C(=O)O)cc(C)cc1OP(=O)(O)O)C(C)(C)C(F)(F)F [Example 10] | 9.22 | 9.92 | 4.24 | 1868.8 |  |  | 86.8 | 7.3 | 228.1 | 18.4 | 4.9 % of total | 95.5 | 418 | 3120 (≈ 1920 µM) |
| COC(=O)N[C@H](C(=O)N[C@@H](Cc1ccc(C#Cc2cnc(N3CC4CCC(C3)N4C3COC3)nc2)cc1)[C@H](CN(Cc1c(F)cc(-c2ccn(C(F)F)n2)cc1F)NC(=O)[C@@H](NC(=O)OC)C(C)(C)C(F)(F)F)OC(=O)CC(C)(C)c1c(CC(=O)Nc2cccc(C(=O)O)c2)cc(C)cc1OP(=O)(O)O)C(C)(C)C(F)(F)F [Example 14] | 10.1 | 5.58 | 6.69 | 2276.6 |  |  | 58.5 | 3.9 | 210.8 | 13.8 | 2.2 % of total | 50.3 | 178 | < 1000 |
| COC(=O)N[C@H](C(=O)N[C@@H](Cc1ccc(C#Cc2ccc(N3CC4CCC(C3)N4C3COC3)nc2)cc1)[C@H](CN(Cc1c(F)cc(-c2ccn(C(F)F)n2)cc1F)NC(=O)[C@@H](NC(=O)OC)C(C)(C)C(F)(F)F)OC(=O)CC(C)(C)c1c(CC(=O)Nc2cccc(C(=O)OO)c2)cc(C)cc1CP(=O)(O)O)C(C)(C)C(F)(F)F [Example 15] | 8.95 | 4.8 | 3.95 | 2690.4 |  |  |  |  |  |  |  |  | 162 | < 1000 |
| COC(=O)N[C@H](C(=O)N[C@@H](Cc1ccc(C#Cc2cnc(N3CC4CCC(C3)N4C3COC3)nc2)cc1)[C@H](CN(Cc1c(F)cc(-c2ccn(C(F)F)n2)cc1F)NC(=O)[C@@H](NC(=O)OC)C(C)(C)C(F)(F)F)OC(=O)CC(C)(C)c1c(CC(=O)N[C@@H](CS(=O)(=O)O)C(=O)O)cc(C)cc1OP(=O)(O)O)C(C)(C)C(F)(F)F [Example 32] | 3.87 | 5.18 | 1 |  |  |  |  |  |  |  |  |  | 137 | 3400 (≈ 2080 µM) |
